Test results taken from patent US20100292306A1, “Compositions And Methods For The Treatment Of Muscular Dystrophy” (priority 2005, published 2010).
“Also recorded” adds a separate entry of the source.

Tested on: mdx mice
Experiment: Noninvasive whole body tension (WBT) measurement of forward pulling tensions
Type: in vivo
Source text: FIG. 18 presents individual “forward pulling tensions” (FPTs; upward deflections) recorded from a PDTC-treated mouse (Series 2) using the whole body tension (WBT) technique (Carlson and Makiejus, 1990). The rank order of FPTs from highest to lowest is indicated by the numbers in the figure. […] In the Series 2 experiments, WBT measurements were obtained from each of the saline-injected and PDTC-injected mice on days 0, 9, 21 and 40 of the experiment.
As a first step in examining the potential effects of PDTC treatment on WBT tension development, the slope of the decline in FPTs was evaluated for each recording session for each mouse examined in the Series 2 experiments (FIG. 19A, 19B). This measure essentially provides a “fatigue index” (FI) since the slope of the decline in FPTs is a direct measure of the average magnitude of the decline in FPT per individual pull for rank-ordered pulls number 2 through 10. If 10 individual pulls obtained during the recording session have identical magnitudes representing the highest FPT, then the FI equals 0. In contrast, a 50% reduction in FPT per pull would produce an FI equal to −0.5.
To examine the potential effect of PDTC treatment on FI in age matched adult mdx mice, a pre-treatment FU was obtained during a typical recording session from each of 10 mdx mice used in the Series 2 investigations (age 9.5 to 16 months at beginning of study). Five of the mice were subsequently treated with daily injections of vehicle (HEPES buffered Ringer's solution) and 5 of the mice were treated with daily injections of 50 mg/kg PDTC. Recordings for each of the mice were subsequently obtained on days 9, 21, and 40 of the treatment period (e.g., FIG. 19). To determine the potential effects of treatment on FI, the FIs obtained on days 9, 21, and 40 (e.g., FIG. 19) were each normalized to the pre-treatment FI for each of the 10 mice used in the study. […] A decrease in the FI indicating a reduction in the average loss of tension per pull during the course of the study would produce normalized FIs less than one, no change in FI would be associated with normalized FIs equal to 1.0, and increases in FI would produce normalized FIs greater than 1.0.
Mdx (C57 Bl10-mdx) and nondystrophic (C57Bl10-SnJ) mice were obtained from Jackson laboratories and bred under conditions approved by the Institutional Animal Care and Use Committee (IACUC). All studies were performed in accordance with the guidelines provided by the IACUC. Male and female PDTC treated mdx mice received daily intraperitoneal (ip) injections of 50 mg/kg pyrollidine dithiocarbamate (PDTC; Sigma P8765) dissolved in sterile-filtered (0.2 μm) HEPES-buffered Ringers solution (147.5 mM NaCl, 5 mM KCl, 2 mM CaCl2, 11 mM glucose, 5 mM Hepes, pH 7.35). Age- and gender-matched groups of vehicle-treated mice received corresponding injections of HEPES Ringers. See Carlson et al., 2005. The PDTC experiments were conducted on two series of mature adult mdx mice (9.5-16 month; 19-20 months) and on a series of young adult (1 month) mice. In each case, the mice in the experimental and vehicle-treated groups were matched according to age and gender with an equal number of males and females in each group. WBT tension measurements were obtained prior to initiating treatment and on multiple occasions following at least 3 weeks (20 days) of treatment.
A group of 30 day-old mdx mice were exposed to daily ip injections (30 day) of 40 mg/kg UDCA (Sigma #5127; 2 mg/ml; N=12 experimental) in an isotonic saline vehicle (1.02% NaCl, pH 8.4,) or a synthetic taurine derivative of UDCA (tauroursodeoxycholic acid, TUDCA, SpA Laboratorio Farmacologico, Cenate Sotto, Italy; 6 mg/ml; N=4 experimental) administered in a saline vehicle (NaCl 6 g/l, KCl 0.3 g/l, CaCl2 0.2 g/l, Na acetate 4 g/l, 300 mosM/l, pH 6.1).
WBT measurements were obtained as indicated in Examples 5 through 7 by placing an approximately 0.5 inch square piece of adhesive tape around the tail about 1 inch from the tip. […]

[1] = individual 6 month mdx male, 50 mg/kg for 30 days (FIG. 34C)
[2] = mature mdx, Series 2 through 4, post-treatment (at least 20 days), p<0.05
[3] = mature mdx, Series 2 through 4, p<0.05

S=C(S)N1CCCC1 [PDTC, pyrrolidine dithiocarbamate]
functional reserve FR (WBT10/WBT5) (50 mg/kg 30 consecutive days from about 30 days of age, at 60 days): approximately 0.9
normalized fatigue index (FI), effect of treatment over days (Series 2, 50 mg/kg daily, Kruskal-Wallis p<0.05, Day 0 vs Day 9 and Day 40): significant effect
normalized FI vs vehicle-injected (Series 2, Day 40, p<0.05): significantly different
fatigue index (FI), combined post-treatment results (Series 2, Days 9, 21 and 40 combined, p<0.05 vs vehicle): reducing; also recorded: reduces
normalized FI vs vehicle-injected (Series 2, Days 9 and 21): failed to reach significance
FPT10 as percent of FPT1 [1]: approximately 77%
maximum FPT [1]: approximately 310 g
whole body strength (mature mdx mice): significantly increasing
WBT5 vs vehicle-injected [2]: elevated
WBT10 vs vehicle-injected [2]: elevated
FR (WBT10/WBT5) post-treatment vs pre-treatment [3]: increased
WBT10 post-treatment vs pre-treatment [3]: increased
increase in WBT5 relative to vehicle (young mdx, 60 days of age): did not reach statistical significance
increase in WBT10 relative to vehicle (young mdx, 60 days of age): did not reach statistical significance
FR relative to vehicle-injected mdx mice (young mdx, 60 days of age, p<0.01): increased; also recorded: prevents a decline
